Patent publication US6175013A, “Imidazolinyl tachykinin receptor antagonists” (Eli Lilly and Company, priority 1994, dated 2001)

Key:
[1] = molecular target: T1, NK-1 receptor (Homo sapiens, UniProt P25103); experiment: NK-1 Receptor Binding Assay (125I-substance P, IM9 cells); settings: 20 pM 125I-labeled substance P, 45 minutes at 4° C., may be average of more than one experiment, read-out: IC50, inhibition of binding of substance P
T1 construct: an aliquot of IM9 cells; endogenous in cells; host or cells: IM9 cells
T1 sequence (P25103 whole entry): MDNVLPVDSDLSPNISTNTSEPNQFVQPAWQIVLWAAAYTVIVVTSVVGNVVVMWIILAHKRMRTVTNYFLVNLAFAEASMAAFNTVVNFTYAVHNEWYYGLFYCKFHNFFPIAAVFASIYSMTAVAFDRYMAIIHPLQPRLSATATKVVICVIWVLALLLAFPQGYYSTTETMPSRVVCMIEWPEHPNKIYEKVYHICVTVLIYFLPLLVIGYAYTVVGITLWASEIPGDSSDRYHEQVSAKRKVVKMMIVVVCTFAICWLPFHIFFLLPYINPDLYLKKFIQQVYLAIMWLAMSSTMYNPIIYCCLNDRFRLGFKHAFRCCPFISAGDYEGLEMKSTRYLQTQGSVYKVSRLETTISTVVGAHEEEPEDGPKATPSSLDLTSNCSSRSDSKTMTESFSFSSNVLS
Description: (§1) The biological activity of the compounds of the present invention was evaluated employing an initial screening assay which rapidly and accurately measured the binding of the tested compound to known NK-1 and NK-2 receptor sites. Assays useful for evaluating tachykinin receptor antagonists are well known in the art. See, e.g., J. Jukic, et al., Life Sciences, 49:1463-1469 (1991); N. Kucharczyk, et al., Journal of Medicinal Chemistry, 36:1654-1661 (1993); N. Rouissi, et al., Biochemical and Bioohysical Research Communications, 176:894-901 (1991).
NK-1 Receptor Binding Assay
Radioreceptor binding assays were performed using a derivative of a previously published protocol. D. G. Payan, et al., Journal of Immunology, 133:3260-3265 (1984). In this assay an aliquot of IM9 cells (1×10^6 cells/tube in […] medium supplemented with 10% fetal calf serum) was incubated with 20 pM ^125 I-labeled substance P in the presence of increasing competitor concentrations for 45 minutes at 4° C.
The IM9 cell line is a well-characterized cell line which is readily available to the public. See, e.g., Annals of the New York Academy of Science, 190: 221-234 (1972); Nature (London), 251:443-444 (1974); Proceedings of the National Academy of Sciences (USA), 71:84-88 (1974). These cells were routinely cultured in RPMI 1640 supplemented with 50 gg/ml gentamicin sulfate and 10% fetal calf serum.
The reaction was terminated by filtration through a glass fiber filter harvesting system using filters previously soaked for 20 minutes in 0.1% polyethylenimine. Specific binding of labeled substance P was determined in the presence of 20 nM unlabeled ligand.
Column 1 provides the example number of the test antagonist compound. The second column depicts the results of the competition assays, detailing the concentration of the test compound (in micromolar quantities) which inhibits fifty percent of the binding of substance P (IC50). Certain values may represent the average of more than one experiment.

[2] = molecular target: T2, human NK-2 receptor (Homo sapiens, UniProt P21452); experiment: NK-2 Receptor Binding Assay ([125I]iodohistidyl-neurokinin A, CHO-hNK-2R cell membranes); settings: CHO-hNK-2R membranes, 20 pM [125I]iodohistidyl-neurokinin A; for IC50: 1 hr room temperature, read-out: IC50, inhibition of binding of neurokinin A
T2 construct: expressed in transfected cells; host or cells: CHO-hNK-2R cells (CHO-derived)
T2 sequence (P21452 1-398): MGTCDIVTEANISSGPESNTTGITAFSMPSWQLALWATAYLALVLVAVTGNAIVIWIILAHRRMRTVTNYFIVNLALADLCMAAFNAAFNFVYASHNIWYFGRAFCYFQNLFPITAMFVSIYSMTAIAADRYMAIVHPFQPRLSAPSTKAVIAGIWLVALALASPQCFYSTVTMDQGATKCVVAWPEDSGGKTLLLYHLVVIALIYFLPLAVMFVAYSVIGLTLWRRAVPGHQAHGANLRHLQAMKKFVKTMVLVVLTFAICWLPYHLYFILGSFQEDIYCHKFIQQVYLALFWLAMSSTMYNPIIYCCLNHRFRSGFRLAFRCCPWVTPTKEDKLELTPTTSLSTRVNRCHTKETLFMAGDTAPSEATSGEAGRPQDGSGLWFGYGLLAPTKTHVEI
Description: as §1
NK-2 Receptor Binding Assay
The CHO-hNK-2R cells, a CHO-derived cell line transformed with the human NK-2 receptor, expressing about 400,000 such receptors per cell, were grown in 75 cm^2 flasks or roller bottles in minimal essential medium (alpha modification) with 10% fetal bovine serum. The gene sequence of the human NK-2 receptor is given in N. P. Gerard, et al., Journal of Biological Chemistry, 65:20455-20462 (1990).
For preparation of membranes, 30 confluent roller bottle cultures were dissociated by washing each roller bottle with 10 ml of Dulbecco's phosphate buffered saline (PBS) without calcium and magnesium, followed by addition of 10 ml of enzyme-free cell dissociation solution (PBS-based, from Specialty Media, Inc.). After an additional 15 minutes, the dissociated cells were pooled and centrifuged at 1,000 RPM for 10 minutes in a clinical centrifuge. Membranes were prepared by homogenization of the cell pellets in 300 ml 50 mM Tris buffer, pH 7.4 with a Tekmar® homogenizer for 10-15 seconds, followed by centrifugation at 12,000 RPM (20,000×g) for 30 minutes using a Beckman JA-14® rotor. The pellets were washed once using the above procedure. and the final pellets were resuspended in 100-120 ml 50 mM Tris buffer, pH 7.4, and 4 ml aliquots stored frozen at -70° C. The protein concentration of this preparation was 2 mg/ml.
For the receptor binding assay, one 4-ml aliquot of the CHO-hNK-2R membrane preparation was suspended in 40 ml of assay buffer containing 50 mM Tris, pH 7.4, 3 mM manganese chloride, 0.02% bovine serum albumin (BSA) and 4 μg/ml chymostatin. A 200 μl volume of the homogenate (40 μg protein) was used per sample. The radioactive ligand was [^125 I]iodohistidyl-neurokinin A (New England Nuclear, NEX-252), 2200 Ci/mmol. […] Non-specific binding was determined using 1 μM eledoisin. […]
All samples and standards were added to the incubation in 10 μl dimethylsulfoxide (DMSO) for screening (single dose) or in 5μl DMSO for IC50 determinations. […] The filter was washed 3 times with approximately 3 ml of cold 50 mM Tris buffer, pH 7.7, The filter circles were then punched into 12×75 mn polystyrene tubes and counted in a gamma counter. […]

Row | IC50 [1] | IC50 [2] | inhibition at 10 µM ([2]; at 10 μM, read-out: percent inhibition of neurokinin A binding) | Compound
1 | 120 nM | 470 nM | – | COc1ccccc1CN1CC(Cc2c[nH]c3ccccc23)N=C1CN1CCN(c2ccccc2)CC1 (centres unmarked) [Example 2, 1-(2-methoxybenzyl)-2-[(4-phenyl-1-piperazinyl)methyl]-4-(1H-indol-3-ylmethyl)-2-imidazoline]
2 | 140 nM | – | 21% | COc1ccccc1CN1CC(Cc2ccccc2)N=C1C (centres unmarked) [Example 4, 1-(2-methoxybenzyl)-2-methyl-4-benzyl-2-imidazoline]
3 | 560 nM | 9100 nM | – | COc1ccccc1CN1CC(C)(Cc2c[nH]c3ccccc23)N=C1C (centres unmarked) [Example 3, 1-(2-methoxybenzyl)-2,4-dimethyl-4-(1H-indol-3-ylmethyl)-2-imidazoline]
4 | 180 nM | 16000 nM | – | COc1ccccc1CN1CC(c2ccccc2)N=C1C (centres unmarked) [Example 1, 1-(2-methoxybenzyl)-2-methyl-4-phenyl-2-imidazoline]
